According to patent publication US10513529B2, “1,2,4-triazolo-[3,4-b]-1,3,4-thiadiazole derivatives” (GALENICA S.A., priority 2016, dated 2019):
“And” between values parts separate entries of the source, which are not always exact repeats. Identical values can stand only once.

Legend:
[1] = system: SKOV-3 human ovarian cancer cell line; assay: MTT cytostatic-cytotoxic activity, SKOV-3; type: cell-based; conditions: for IC50: kills 50% of the cells
Experimental: (§1) SKOV-3 (SKOV-3) (ATCC HTB 77) and OVCAR-3 (ATCC® HTB-161™)
(§2) Human ovarian adenocarcinoma cells, which are grown easily in monolayer culture with epithelial-like morphology. SKOV-3 are resistant to tumor necrosis factor (TNF) and to other cytotoxic drugs such as cisplatin, and adriamycin, while OVCAR-3 are resistant to adriamycin, cisplatin and melphalan. These cell lines express androgens, estrogens and progesterone receptors. When SKOV-3 or OVCAR-3 cells are subcutaneously implanted in nude mice, SCID mice, a moderately differentiated tumor develops, and the resulting model resembles primary ovarian adenocarcinoma in humans.
(§3) All cancer cell lines are stored in a liquid nitrogen tank in 2.5 ml cryovials (Corning-Costar, Cambridge, Mass.). DMSO (dimethylsulfoxide) act as a cryoprotectant and is added to prevent the formation of ice crystals which may lyse the cells. The Cells were grown as monolayer cultures in T-75 flasks (Corning-Costar, Cambridge, Mass.) and maintained at 37° C. in 5% CO2 incubator & 100% relative humidity. The cultures medium used are McCoy's 5a Medium, supplemented with 10% fetal bovine serum (FBS, Gibco) and 1% antibiotics (100 IU/ml penicillin/100 µg/ml streptomycin), sterilized by filtration (Corning-Costar filter, diameter 0.2 μm, RPMI-1640 and 50% RPMI-1640 (Catalog No 30-2001) plus 50% Mammary Epithelial Growth Medium (MEGM), supplemented with 10% fetal bovine serum (FBS, Gibco) and 1% antibiotics (100 IU/ml penicillin/100 μg/ml streptomycin). The passage is performed every 3-4 to days as follows: Cells are washed with sterile PBS (Phosphate buffered saline): 8 g/l NaCl, 0,2 g/l KCl, 1,15 g/l Na2HPO4καl 0,2 g/l KH2PO4. pH:7,4), add 2-3 ml 0.05% trypsin (Gibco 1:250) and 0.02% EDTA to cover the monolayer and incubate the flask at 3TC for 5-10 minutes. Trypsin-EDTA, is used mainly to detach the cells from the flask and prepare a single cell suspension. Finally, the number of cells can be determined by direct counting using a Neubauer chamber and cell viability is determined by staining the cells with trypan blue.
(§4) In the experimental study the in vitro effect of the compound type (I) was evaluated against ovarian cancer cell lines UWB1.289, UWB1.289+BRCA1 Kai SKOV-3.The cells were plated in 96-well plate (MTP) at a density of 1×10^4cells/m1 per well and maintained for 72 h at 3TC in a 5% CO2 incubator and grown as monolayers. The selection of the initial number of cells was made according to the rate of proliferation of the cell line, in order the cells throughout the experiment are in an exponential (log) growth phase. After 24 hours, cells were treated with 1-100 μmol/l of the tested compounds for 48 h. Experiments were carried out using triplicate wells. The viability of cultured cells was estimated by an (3-(4,5-imethylthiazol-2-yl)-2,5-diphenyltetrazolium bromide (MTT) metabolic assay as described previously (Finlay G J, Wilson W R and Baguley B C: Comparison of in vitro activity of cytotoxic drugs towards human carcinoma and leukaemia cell lines. Eur J Cancer Clin Oncol 22: 655-662, 1986; Alley M C, Scudiero D A, Monks A, Hursey M L, Czerwinski M J, Fine D L, et al. Feasibility of drug screening with panels of human tumor cell lines using a microculture tetrazolium assay. Cancer Res 1988; 48:589-601). MTT (Sigma, St Louis, Mo., USA) was dissolved in PBS in a concentration of 5 mg/ml, filter sterilized, and stored at 4° C. MTT (50 μl of stock solution) was added to each culture and incubated for 3 h at 3TC to allow metabolization. Formazan crystals were solubilized by DMSO (100 μl). Absorbance of the converted dye was measured at a wavelength of 540nm on ELISA reader (BioTek, Winooski, Vt., USA).
(§5) GI50: The mean concentration that causes 50% inhibition of cell growth (Growth Inhibition 50%). The calculation of the value is based on the formula: (Tt72x)−(Ct24)/(Ct72)-(Ct24)×100=50
(§6) TGI: The mean concentration that causes 100% inhibition of cell growth (Total Growth Inhibition). […]

[2] = system: UWB1.289 human ovarian cancer cell line (mutant BRCA1); assay: MTT cytostatic-cytotoxic activity, UWB1.289; type: cell-based; conditions: for IC50: kills 50% of the cells
Experimental: Also, UWB1.289 cells have mutated the p53 tumor suppressor gene and positive Wilms' tumor protein (WT) expression, have no functional BRCA1 gene and are positive for the expression of cytokeratin 7 (CK-7), calretinin and Wilms' tumor protein (WT). Finally they are sensitive to ionizing radiation.
as §3, §4, §5
(§7) TGI: The mean concentration that causes 100% inhibition of cell growth (Total Growth Inhibition). The value is calculated according to the formula: (Tt72x)−(Ct24)/(Ct72)−(Ct24)×100=0
(§8) IC50: The mean concentration that kills 50% of the cells (Inhibition Concentration 50%). The value is calculated according to the formula: (Tt72x)−(Ct24)/(Ct24)×100=[…]

[3] = system: MOLT-4 human acute T-leukemia cell line; assay: MTT cytostatic-cytotoxic activity, MOLT-4; type: cell-based; conditions: MOLT-4, 48 h treatment; for IC50: kills 50% of the cells
[4] = system: UWB1.289 + BRCA1 human ovarian cancer cell line; assay: MTT cytostatic-cytotoxic activity, UWB1.289+BRCA1; type: cell-based; conditions: for IC50: kills 50% of the cells
Experimental: Human ovarian adenocarcinoma cells, derived from UBWB1,289, in which the presence of the BRCA1 gene has been restored. […] They are not susceptible to ionizing radiation and radioimmune chemical agents (e.g., alkylating agents). Also, UWB1.289 cells have mutated the p53 tumor suppressor gene, and are positive for the expression of cytokeratin 7 (CK-7), calretinin and Wilms' tumor protein (WT).
as §3, §4, §5, §7, §8

[5] = system: MCF-7 human breast cancer cell line; assay: MTT cytostatic-cytotoxic activity, MCF-7; type: cell-based; conditions: for IC50: kills 50% of the cells
[6] = system: PC-3 human hormone-resistant prostate cancer cell line; assay: MTT cytostatic-cytotoxic activity, PC-3; type: cell-based; conditions: PC-3, 48 h treatment; for IC50: kills 50% of the cells
[7] = system: A-549 human lung carcinoma cell line; assay: MTT cytostatic-cytotoxic activity, A-549; type: cell-based; conditions: for IC50: kills 50% of the cells
[8] = system: OVCAR-3 human ovarian cancer cell line; assay: MTT cytostatic-cytotoxic activity, OVCAR-3; type: cell-based; conditions: OVCAR-3, 48 h treatment; for IC50: kills 50% of the cells
Experimental: as §1, §2, §3, §4, §5, §6

[9] = system: T-47D human breast cancer cell line; assay: MTT cytostatic-cytotoxic activity, T-47D; type: cell-based; conditions: 48 h treatment; for IC50: kills 50% of the cells
[10] = system: C57BI/6 mice; assay: in vivo; conditions: i.p., acute toxicity
Experimental: The acute toxicity of the compounds was assessed from lethality by testing different concentrations, starting at 100mg/kg. […] For intraperitoneal (i.p.) treatment, stock solutions of the tested compounds were prepared immediately before use. They were suspended in corn oil in the desired concentration following initial dissolution in 10% dimethylsulfoxide (DMSO). C57BI/6 male and female were used for toxicity studies. Mice were kept under conditions of constant temperature and humidity in sterile cages with water and food.

[11] = Homo sapiens, SK-OV-3, SKOV-3, 48 h treatment
[12] = Homo sapiens, UWB1289, UWB1.289+BRCA1, 48 h treatment
[13] = Homo sapiens, A549, A-549, 48 h treatment

COc1cc(Cc2nnc3sc(-c4cccc(Cl)c4)nn23)c(S(=O)(=O)N(C)C)cc1OC [TS22, 3-[2-(N,N-dimethylsulfamoyl)-4,5-dimethoxybenzyl]-6-(3-chlorophenyl)-1,2,4-triazolo[3,4-b]-1,3,4-thiazole]
GI50 [1, 11]: 60 µM
IC50 [1, 11]: > 100 µM
TGI ([1]; SKOV-3, 48 h treatment): 100 µM
IC50 ([2]; Homo sapiens, UWB1289, UWB1.289, 48 h treatment): > 100 µM
TGI ([2]; UWB1.289, 48 h treatment): >100 µM
melting point: 237 to 239 °C
GI50 ([3]; Homo sapiens): 72 µM
IC50 ([3]; Homo sapiens): > 100 µM
TGI [3]: >100 µM
GI50 [4, 12]: 16 µM
IC50 [4, 12]: > 100 µM
TGI ([4]; UWB1.289+BRCA1, 48 h treatment): >100 µM
IC50 ([5]; Homo sapiens, MCF7, MCF-7, 48 h treatment): > 100 µM
TGI ([5]; MCF-7, 48 h treatment): 90 µM and >100 µM
GI50 ([6]; Homo sapiens): > 100 µM
IC50 ([6]; Homo sapiens): > 100 µM
TGI [6]: >100 µM
TGI ([7]; A-549, 48 h treatment): 95 µM
GI50 [7, 13]: 45 µM
IC50 [7, 13]: > 100 µM
GI50 ([8]; Homo sapiens): 90 µM
IC50 ([8]; Homo sapiens): > 100 µM
TGI [8]: >100 µM
GI50 [9]: 60 µM
TGI [9]: 97 µM and 100 µM
GI50 ([9]; Homo sapiens, T47D, 48 h): 48 µM
IC50 ([9]; Homo sapiens, T47D): > 100 µM

COc1cc(Cc2nnc3sc(CC=Cc4ccccc4)nn23)c(S(=O)(=O)N(C)C)cc1OC [TS53, 3-[2-(N,N-dimethylsulfamoyl)-4,5-dimethoxybenzyl]-6-cinnamyl-1,2,4-triazolo[3,4-b]-1,3,4-thiazole]
GI50 ([1]; SKOV-3, 48 h treatment): 8 µM
TGI ([1]; SKOV-3, 48 h treatment): 16 µM
IC50 ([1]; SKOV-3, 48 h treatment): 32 µM
GI50 ([2]; UWB1.289, 48 h treatment): 12 µM
TGI ([2]; UWB1.289, 48 h treatment): 56 µM
IC50 ([2]; UWB1.289, 48 h treatment): > 100 µM
GI50 [3]: 4 µM
TGI [3]: 21 µM
IC50 [3]: 36 µM
GI50 ([4]; UWB1.289+BRCA1, 48 h treatment): 12 µM
TGI ([4]; UWB1.289+BRCA1, 48 h treatment): 28 µM
IC50 ([4]; UWB1.289+BRCA1, 48 h treatment): 42 µM
GI50 ([5]; MCF-7, 48 h treatment): 15 µM
TGI ([5]; MCF-7, 48 h treatment): 45 µM
IC50 ([5]; MCF-7, 48 h treatment): > 100 µM
GI50 [6]: 12 µM
TGI [6]: 31 µM
IC50 [6]: 85 µM
GI50 ([7]; A-549, 48 h treatment): 9 µM
TGI ([7]; A-549, 48 h treatment): 24 µM
IC50 ([7]; A-549, 48 h treatment): 58 µM
GI50 [8]: 5 µM
TGI [8]: 12 µM
IC50 [8]: 25 µM
GI50 [9]: 8 µM
TGI [9]: 37 µM
IC50 [9]: > 100 µM
LD10 [10]: >500 mg/kg
LD50 [10]: 375 mg/kg

COc1cc(Cc2nnc3sc(-c4ccccn4)nn23)c(S(=O)(=O)N(C)C)cc1OC [TS66]
GI50 ([1]; SKOV-3, 48 h treatment): 20 µM
TGI ([1]; SKOV-3, 48 h treatment): >100 µM
IC50 ([1]; SKOV-3, 48 h treatment): > 100 µM
GI50 ([2]; UWB1.289, 48 h treatment): > 100 µM
TGI ([2]; UWB1.289, 48 h treatment): >100 µM
IC50 ([2]; UWB1.289, 48 h treatment): > 100 µM
GI50 [3]: 85 µM
TGI [3]: >100 µM
IC50 [3]: > 100 µM
GI50 ([4]; UWB1.289+BRCA1, 48 h treatment): > 100 µM
TGI ([4]; UWB1.289+BRCA1, 48 h treatment): >100 µM
IC50 ([4]; UWB1.289+BRCA1, 48 h treatment): > 100 µM
GI50 ([5]; MCF-7, 48 h treatment): > 100 µM
TGI ([5]; MCF-7, 48 h treatment): >100 µM
IC50 ([5]; MCF-7, 48 h treatment): > 100 µM
GI50 [6]: > 100 µM
TGI [6]: >100 µM
IC50 [6]: > 100 µM
GI50 ([7]; A-549, 48 h treatment): > 100 µM
TGI ([7]; A-549, 48 h treatment): >100 µM
IC50 ([7]; A-549, 48 h treatment): > 100 µM
GI50 [8]: 24 µM
TGI [8]: >100 µM
IC50 [8]: > 100 µM
GI50 [9]: > 100 µM
TGI [9]: >100 µM
IC50 [9]: > 100 µM
LD10 [10]: >500 mg/kg
LD50 [10]: >500 mg/kg
